≈ marks a conversion by molar mass, not a printed value.
Experiments:
[1] = system: panel of ten C. auris strains (AR Bank #381-390); assay: MIC determination, summary over the C. auris panel; type: cell-based, Candida auris; settings: Candidozyma auris; against all ten C. auris strains tested (AR Bank #381-390)
Summary of the method: (§1)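 Growing yeast cultures are diluted into RPMI 1640, re-adjusted to OD600 0.12, and further diluted 1:100. All growth takes place at 35° C in medium buffered with 0.165 M MOPS to pH 7.0.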

C. auris AR Bank #387 = assay: MIC determination by in vitro antifungal assay; type: cell-based, Candida auris; settings: Candidozyma auris; C. auris AR Bank #387; read-out: MIC
Summary of the method: as §1

C. auris AR Bank #386 = assay: MIC determination by in vitro antifungal assay; type: cell-based, Candida auris; settings: Candidozyma auris; C. auris AR Bank #386; read-out: MIC
Summary of the method: as §1

C. auris AR Bank #389 = assay: MIC determination by in vitro antifungal assay; type: cell-based, Candida auris; settings: Candidozyma auris; C. auris AR Bank #389; read-out: MIC
Summary of the method: as §1

C. auris AR Bank #388 = assay: MIC determination by in vitro antifungal assay; type: cell-based, Candida auris; settings: Candidozyma auris; C. auris AR Bank #388; read-out: MIC
Summary of the method: as §1

C. auris AR Bank #382 = assay: MIC determination by in vitro antifungal assay; type: cell-based, Candida auris; settings: Candidozyma auris; C. auris AR Bank #382; read-out: MIC
Summary of the method: as §1

C. auris AR Bank #381 = assay: MIC determination by in vitro antifungal assay; type: cell-based, Candida auris; settings: Candidozyma auris; C. auris AR Bank #381; read-out: MIC
Summary of the method: as §1

C. auris AR Bank #383 = assay: MIC determination by in vitro antifungal assay; type: cell-based, Candida auris; settings: Candidozyma auris; C. auris AR Bank #383; read-out: MIC
Summary of the method: as §1

C. auris AR Bank #385 = assay: MIC determination by in vitro antifungal assay; type: cell-based, Candida auris; settings: Candidozyma auris; C. auris AR Bank #385; read-out: MIC
Summary of the method: as §1

[2] = system: Candida haemulonii AR Bank #393; assay: MIC determination by in vitro antifungal assay; type: cell-based; settings: Candidozyma haemuli, read-out: MIC
Experimental: (§2) The antifungal agent amphotericin B (AmB) was purchased from VWR (Radnor PA, USA). AmB was dissolved in DMSO at a final concentration of 5 mg/mL and was stored at −20° C., protected from light. Candida albicans American Type Culture Collection (ATCC) 10231 (strain A), C. albicans ATCC 64124 (B), and C. albicans ATCC MYA-2876 (C) were obtained from Utah State University. C. albicans ATCC 90819 (D), C. albicans ATCC MYA-2310 (E), C. albicans ATCC MYA-1237 (F), C. albicans ATCC MYA-1003 (G), Candida glabrata ATCC 2001 (H), Candida krusei ATCC 6258 (I), Candida parapsilosis ATCC 22019 (J), Cryptococcus neoformans ATCC MYA-895 (M), Aspergillus terreus ATCC MYA-3633 (N), and Aspergillus flavus ATCC MYA-3631 (0) were obtained from the American Type Culture Collection (ATCC; Manassas, VA, USA). Aspergillus nidulans ATCC 38163 (P) was obtained from University of Kentucky. Clinically derived Aspergillus fumigatus NRRL 163 (Q), A. fumigatus NRRL 5109 (R), and A. fumigatus NRRL 6113 (S) were obtained from Northern Regional Research Laboratory (NRRL). Candida auris 384 (K), C. auris 390 (L), and fungal strains 381-400 (including 10 C. auris (AR Bank #381-390), 3 Candida duobushaemulonii (AR Bank #391, AR Bank #392, and AR Bank #394), 2 Candida haemulonii (AR Bank #393 and AR Bank #395), 1 Kodameae ohmeri (AR Bank #396), 1 C. krusei (AR Bank #397), 1 Candida lusitaniae (AR Bank #398), and 2 Saccharomyces cerevisiae strains (AR Bank #399 and AR Bank #400)) were part of a larger fungal library from the AR Bank maintained by the Centers for Disease Control and Prevention (CDC; Atlanta, GA, USA). Filamentous fungi and yeasts were cultivated at 35° C. in RPMI 1640 medium (with L-glutamine, without sodium bicarbonate, Sigma-Aldrich, St. Louis, MO) buffered to a pH of 7.0 with 0.165 M morpholinepropanesulfonic acid (MOPS) buffer (Sigma-Aldrich). For cytotoxicity assays, HepG2 and the mouse macrophage cell line J774A.1 were obtained from University of Kentucky. The human embryonic kidney cell line, HEK-293, was bought from the ATCC. Mammalian cells were grown in Dulbecco's Modified Eagle's Medium (DMEM) (from VWR) with 10% fetal bovine serum (FBS) (from VWR) and 1% Pen/Strep (from ATCC). Cell lines were cultured at 37° C. with 5% CO2 and passaged by trypsinization with 0.05% trypsin: 0.53 mM EDTA (from Sigma-Aldrich).
(§3) From the actively growing yeast culture, 100 µL were then transferred to 900 μL of RPMI 1640 medium and re-adjusted to achieve OD600 of 0.12 (˜1×10^6 CFU/mL). The cell suspension was further diluted to achieve 1:100 in RPMI 1640 medium.

[3] = system: Candida duobushaemulonii AR Bank #394; assay: MIC determination by in vitro antifungal assay; type: cell-based; settings: Candidozyma duobushaemuli, read-out: MIC
Experimental: as §2, §3

[4] = system: Kodameae ohmeri AR Bank #396; assay: MIC determination by in vitro antifungal assay; type: cell-based; settings: strain AR Bank #396; read-out: MIC
Experimental: as §2, §3

[5] = system: Candida lusitaniae AR Bank #398; assay: MIC determination by in vitro antifungal assay; type: cell-based; settings: Clavispora lusitaniae; Candida strain AR Bank #398; read-out: MIC
Experimental: as §2, §3

[6] = system: Saccharomyces cerevisiae AR Bank #399; assay: MIC determination by in vitro antifungal assay; type: cell-based; settings: read-out: MIC
Experimental: as §2, §3

[7] = system: Candida haemulonii AR Bank #395; assay: MIC determination by in vitro antifungal assay; type: cell-based; settings: Candidozyma haemuli, read-out: MIC
Experimental: as §2, §3

[8] = system: Candida duobushaemulonii AR Bank #392; assay: MIC determination by in vitro antifungal assay; type: cell-based; settings: Candidozyma duobushaemuli, read-out: MIC
Experimental: as §2, §3

[9] = system: Candida duobushaemulonii AR Bank #391; assay: MIC determination by in vitro antifungal assay; type: cell-based; settings: Candidozyma duobushaemuli, read-out: MIC
Experimental: as §2, §3

[10] = system: Candida krusei AR Bank #397; assay: MIC determination by in vitro antifungal assay; type: cell-based; settings: Pichia kudriavzevii; Candida strain AR Bank #397; read-out: MIC
Experimental: as §2, §3

Row | Structure (SMILES) | MIC [1] [µg/mL] | MIC (C. auris AR Bank #387) [µg/mL] | MIC (C. auris AR Bank #386) [µg/mL] | MIC (C. auris AR Bank #389) [µg/mL] | MIC (C. auris AR Bank #388) [µg/mL] | MIC (C. auris AR Bank #382) [µg/mL] | MIC (C. auris AR Bank #381) [µg/mL] | MIC (C. auris AR Bank #383) [µg/mL] | MIC (C. auris AR Bank #385) [µg/mL] | MIC [2] [µg/mL] | MIC [3] [µg/mL] | MIC [4] [µg/mL] | MIC [5] [µg/mL] | MIC [6] [µg/mL] | MIC [7] [µg/mL] | MIC [8] [µg/mL] | MIC [9] [µg/mL] | MIC [10] [µg/mL]
1 | O=C(NNc1cccc(Cl)c1)c1cnccn1 [Compound 9b] | 0.06 to 1.95 (≈ 0.241 to 7.84 µM) | 0.24 (≈ 0.965 µM) | ≤ 0.06 | 0.24 (≈ 0.965 µM) | 0.24 (≈ 0.965 µM) | 0.12 (≈ 0.483 µM) | 0.49 (≈ 1.97 µM) | 0.24 (≈ 0.965 µM) | 0.24 (≈ 0.965 µM) | 0.24 (≈ 0.965 µM) | 0.12 (≈ 0.483 µM) | 0.12 (≈ 0.483 µM) | 0.49 (≈ 1.97 µM) | 0.98 (≈ 3.94 µM) | 0.24 (≈ 0.965 µM) | 0.12 (≈ 0.483 µM) | 0.24 (≈ 0.965 µM) | 0.12 (≈ 0.483 µM)
2 | O=C(NNc1ccc(F)cc1F)c1ccccn1 [Compound 2g] | 0.06 to 1.95 (≈ 0.241 to 7.82 µM) | 0.12 (≈ 0.482 µM) | 0.49 (≈ 1.97 µM) | 0.24 (≈ 0.963 µM) | 0.12 (≈ 0.482 µM) | 0.49 (≈ 1.97 µM) | 0.49 (≈ 1.97 µM) | 0.49 (≈ 1.97 µM) | 0.49 (≈ 1.97 µM) | 0.49 (≈ 1.97 µM) | 3.9 (≈ 15.6 µM) | 0.98 (≈ 3.93 µM) | 1.95 (≈ 7.82 µM) | 0.49 (≈ 1.97 µM) | 0.24 (≈ 0.963 µM) | 0.49 (≈ 1.97 µM) | 0.12 (≈ 0.482 µM) | ≤ 0.06
3 | O=C(NNc1ccc(F)cc1)c1ccccn1 [Compound 2d] | 0.12 to 7.8 (≈ 0.519 to 33.7 µM) | 0.98 (≈ 4.24 µM) | 0.49 (≈ 2.12 µM) | 0.49 (≈ 2.12 µM) | 0.98 (≈ 4.24 µM) | 1.95 (≈ 8.43 µM) | 0.98 (≈ 4.24 µM) | 1.95 (≈ 8.43 µM) | 0.98 (≈ 4.24 µM) | 0.24 (≈ 1.04 µM) | 0.24 (≈ 1.04 µM) | 0.24 (≈ 1.04 µM) | 1.95 (≈ 8.43 µM) | 3.9 (≈ 16.9 µM) | 0.12 (≈ 0.519 µM) | 0.49 (≈ 2.12 µM) | 0.49 (≈ 2.12 µM) | 0.24 (≈ 1.04 µM)
4 | COc1ccc(NNC(=O)c2cnccn2)cc1 [Compound 9f] | 0.06 to 1.95 (≈ 0.246 to 7.98 µM) | 1.95 (≈ 7.98 µM) | 0.49 (≈ 2.01 µM) | 0.98 (≈ 4.01 µM) | 0.98 (≈ 4.01 µM) | 0.98 (≈ 4.01 µM) | 1.95 (≈ 7.98 µM) | 0.98 (≈ 4.01 µM) | 0.98 (≈ 4.01 µM) | 0.24 (≈ 0.983 µM) | 0.49 (≈ 2.01 µM) | 0.98 (≈ 4.01 µM) | 0.98 (≈ 4.01 µM) | 0.98 (≈ 4.01 µM) | 0.49 (≈ 2.01 µM) | 0.49 (≈ 2.01 µM) | 0.49 (≈ 2.01 µM) | 0.49 (≈ 2.01 µM)
5 | O=C(NNc1ccc(F)cc1F)c1cnccn1 [Compound 9g] | 0.12 to 7.8 (≈ 0.48 to 31.2 µM) | 0.49 (≈ 1.96 µM) | 0.49 (≈ 1.96 µM) | 0.49 (≈ 1.96 µM) | 0.49 (≈ 1.96 µM) | 1.95 (≈ 7.79 µM) | 3.9 (≈ 15.6 µM) | 0.98 (≈ 3.92 µM) | 0.98 (≈ 3.92 µM) | 0.24 (≈ 0.959 µM) | 7.8 (≈ 31.2 µM) | 0.98 (≈ 3.92 µM) | 3.9 (≈ 15.6 µM) | 7.8 (≈ 31.2 µM) | 1.95 (≈ 7.79 µM) | 0.24 (≈ 0.959 µM) | 0.49 (≈ 1.96 µM) | 1.95 (≈ 7.79 µM)
6 | O=C(NNc1cc(Cl)cc(Cl)c1)c1ccccn1 [Compound 2j] | 0.12 to 7.8 (≈ 0.425 to 27.6 µM) | 0.98 (≈ 3.47 µM) | 1.98 (≈ 7.02 µM) | 1.95 (≈ 6.91 µM) | 3.9 (≈ 13.8 µM) | 0.98 (≈ 3.47 µM) | 3.9 (≈ 13.8 µM) | 1.95 (≈ 6.91 µM) | 1.95 (≈ 6.91 µM) | 0.24 (≈ 0.851 µM) | 0.49 (≈ 1.74 µM) | 0.49 (≈ 1.74 µM) | 3.9 (≈ 13.8 µM) | 3.9 (≈ 13.8 µM) | 0.24 (≈ 0.851 µM) | 0.98 (≈ 3.47 µM) | 0.98 (≈ 3.47 µM) | 0.49 (≈ 1.74 µM)
7 | O=C(NNc1cc(F)cc(F)c1)c1ccccn1 [Compound 2i] | 0.06 to 1.95 (≈ 0.241 to 7.82 µM) | 0.24 (≈ 0.963 µM) | ≤ 0.06 | 0.24 (≈ 0.963 µM) | 0.24 (≈ 0.963 µM) | 0.12 (≈ 0.482 µM) | 0.98 (≈ 3.93 µM) | 0.24 (≈ 0.963 µM) | 0.24 (≈ 0.963 µM) | 0.49 (≈ 1.97 µM) | 0.24 (≈ 0.963 µM) | 0.12 (≈ 0.482 µM) | 0.49 (≈ 1.97 µM) | 1.95 (≈ 7.82 µM) | 0.24 (≈ 0.963 µM) | 0.49 (≈ 1.97 µM) | 0.24 (≈ 0.963 µM) | 0.12 (≈ 0.482 µM)
8 | COc1ccc(NNC(=O)c2ccccn2)cc1 [Compound 2f] | 0.12 to 7.8 (≈ 0.493 to 32.1 µM) | 0.49 (≈ 2.01 µM) | 0.24 (≈ 0.987 µM) | 0.24 (≈ 0.987 µM) | 0.49 (≈ 2.01 µM) | 1.95 (≈ 8.02 µM) | 1.95 (≈ 8.02 µM) | 1.95 (≈ 8.02 µM) | 0.98 (≈ 4.03 µM) | 0.49 (≈ 2.01 µM) | 0.98 (≈ 4.03 µM) | 0.49 (≈ 2.01 µM) | 0.98 (≈ 4.03 µM) | 1.95 (≈ 8.02 µM) | 0.49 (≈ 2.01 µM) | 0.98 (≈ 4.03 µM) | 0.98 (≈ 4.03 µM) | 0.49 (≈ 2.01 µM)

— patent US20240425464A1, “Substituted Monohydrazides as Potent Antifungal Agents” (University of Kentucky Research Foundation, priority 2023, published 2024)
